Measurements taken from ChEMBL document CHEMBL5512605, “Targeted regulated cell death with small molecule compounds in colorectal cancer: Current perspectives of targeted therapy and molecular mechanisms” (Eur J Med Chem, 2024).

What was measured:
HCT-116 [1] = assay: Antiproliferative activity against human HCT-116 cells measured upto 72 hrs by CCK-8 method; format: functional
SW480 [2] = assay: Antiproliferative activity against human SW480 cells measured upto 72 hrs by CCK-8 method; format: functional
LoVo [3] = assay: Antiproliferative activity against human LoVo cells measured upto 72 hrs by CCK-8 method; format: functional
HCT-116 [4] = assay: Cytotoxicity against human HCT-116 cells assessed as inhibition of cell growth incubated for 24 hrs by MTT assay; format: functional
HCT-116 [5] = assay: Antiproliferative activity against human HCT-116 cells expressing wild type p53 measured after 48 hrs by MTT assay; format: functional, cell-based; conditions: HCT-116, 48 h
HCT-116 [6] = assay: Antiproliferative activity against human HCT-116 cells; format: functional, cell-based
HCT-116 [7] = assay: Antiproliferative activity against human HCT-116 cells assessed as inhibition of cell growth measured after 24 hrs by CellTiter 96 Aqueous One Solution Cell Proliferation Assay; format: functional, cell-based; conditions: HCT-116, 24 h
SW480 [8] = assay: Antiproliferative activity against human SW480 cells assessed as inhibition of cell growth measured after 24 hrs by CellTiter 96 Aqueous One Solution Cell Proliferation Assay; format: functional, cell-based; conditions: SW480, 24 h
SW-620 [9] = assay: Antiproliferative activity against human SW620 cells measured upto 60 hrs by MTS assay; format: functional
SW480 [10] = assay: Antiproliferative activity against human SW480 cells assessed as inhibition of cell growth measured after 48 hrs by CCK-8 method; format: functional, cell-based; conditions: SW480, 48 h
SW-620 [11] = assay: Antiproliferative activity against human SW620 cells assessed as inhibition of cell growth measured after 48 hrs by CCK-8 method; format: functional, cell-based; conditions: SW-620, 48 h
DLD-1 = assay: Antiproliferative activity against human DLD-1 cells assessed as inhibition of cell growth measured after 48 hrs by CCK-8 method; format: functional, cell-based; conditions: DLD-1, 48 h
HCT-116 [12] = assay: Antiproliferative activity against human HCT-116 cells assessed as inhibition of cell growth measured after 48 hrs by CCK-8 method; format: functional, cell-based; conditions: HCT-116, 48 h
HT-29 [13] = assay: Antiproliferative activity against human HT-29 cells assessed as inhibition of cell growth measured after 48 hrs by CCK-8 method; format: functional, cell-based; conditions: HT-29, 48 h
SW480 [14] = assay: Antiproliferative activity against human SW480 cells; format: functional, cell-based
CT26 = assay: Antiproliferative activity against mouse CT26 cells assessed as inhibition of cell viability; format: functional, cell-based
HCT-116 [15] = assay: Antiproliferative activity against human HCT-116 cells assessed as inhibition of cell viability; format: functional, cell-based
HCT-116 [16] = assay: Cytotoxicity against human HCT-116 cells; format: functional, cell-based; conditions: Homo sapiens, HCT-116
SW-620 [17] = assay: Cytotoxicity against human SW620 cells; format: functional, cell-based; conditions: Homo sapiens, SW-620
LoVo [18] = assay: Antiproliferative activity in human LoVo cells incubated for 72 hrs by MTT assay; format: functional, cell-based
SW-620 [19] = assay: Antiproliferative activity against human SW620 cells assessed as inhibition of cell growth; format: functional, cell-based
HCT-116 [20] = assay: Antiproliferative activity against human HCT-116 cells assessed as inhibition of cell growth; format: functional, cell-based
HT-29 [21] = assay: Antiproliferative activity in human HT-29 cells incubated for 48 hrs by MTT assay; format: functional, cell-based; conditions: HT-29, 48 h
HCT-116 [22] = assay: Cytotoxicity against human HCT-116 cells measured after 24 hrs by MTT assay; format: functional, cell-based; conditions: HCT-116, 24 h
HT-29 [23] = assay: Cytotoxicity against human HT-29 cells measured after 24 hrs by MTT assay; format: functional, cell-based; conditions: HT-29, 24 h
HCT-116 [24] = assay: Antiproliferative activity against human HCT-116 cells incubated for 24 hrs by MTT assay; format: functional
HT-29 [25] = assay: Cytotoxicity against human HT-29 cells; format: functional, cell-based
COLO 205 = assay: Cytotoxicity against human COLO 205 cells; format: functional, cell-based
KM12 = assay: Cytotoxicity against human KM12 cells; format: functional, cell-based
HCT-116 [26] = assay: Antiproliferative activity against human HCT-116 cells incubated for 48 hrs by MTT assay; format: functional, cell-based; conditions: HCT-116, 48 h
HT-29 [27] = assay: Antiproliferative activity against human HT-29 cells incubated for 48 hrs by MTT assay; format: functional, cell-based; conditions: HT-29, 48 h
HT-29 [28] = assay: Induction of cell cycle arrest in human HT-29 cells measured after 24 to 48 hrs by PI staining based flow cytometry analysis; format: functional

## C[C@H]1[C@H](C)CC[C@]2(C(=O)O[C@@H]3O[C@H](CO[C@@H]4O[C@H](CO)[C@@H](O[C@@H]5O[C@@H](C)[C@H](O)[C@@H](O)[C@H]5O)[C@H](O)[C@H]4O)[C@@H](O)[C@H](O)[C@H]3O)CC[C@]3(C)C(=CC[C@@H]4[C@@]5(C)C[C@@H](O)[C@H](O)[C@@](C)(CO)[C@@H]5CC[C@]43C)[C@H]12
HCT-116 [1]
  IC: 2 µM
SW480 [2]
  IC: 2 µM
LoVo [3]
  IC: 2 µM

## NCCCNCCCCNCCCN1C(=O)c2ccc3c4c(ccc(c24)C1=O)C(=O)N(CCCNCCCCNCCCN)C3=O
HCT-116 [4]
  IC: 1 µM

## Cc1c(CO)c(CO)c2n1[C@H](c1ccccc1)SC2
HCT-116 [5]
  IC50: 0.97 µM

## COc1cc(C[C@@H](CO[C@@H]2O[C@H](CO)[C@@H](O)[C@H](O)[C@H]2O)[C@H](CO[C@@H]2O[C@H](CO)[C@@H](O)[C@H](O)[C@H]2O)Cc2ccc(O)c(OC)c2)ccc1O
HCT-116 [6]; Homo sapiens, HCT-116
  IC50: 24.5 µM

## C[C@@H]1CC[C@]2(C(=O)O)CC[C@]3(C)C(=CC[C@@H]4[C@@]5(C)CC[C@H](O[C@@H]6OC[C@H](O)[C@H](O)[C@H]6O)C(C)(C)[C@@H]5CC[C@]43C)[C@@H]2[C@]1(C)O
HCT-116 [7]
  IC50: 10.8 µM
SW480 [8]
  IC50: 11.3 µM

## COc1cc2c(=O)oc3c(OC)c(O)cc4c(=O)oc(c1OC)c2c34
SW-620 [9]
  IC: 15 µM

## CCc1ccc2c3[nH]c4ccccc4c3cc[n+]2c1
SW480 [10]
  IC50: 15.3 µM
SW-620 [11]
  IC50: 10.5 µM
DLD-1
  IC50: 10.8 µM
HCT-116 [12]
  IC50: 8.15 µM
HT-29 [13]
  IC50: 9.58 µM

## O=C1C2C3C=CC(C4CC34)C2C(=O)N1c1ccc(Cc2ccncc2)cc1 (stereo not drawn)
HCT-116 [6]
  IC: 10 µM
SW480 [14]
  IC: 10 µM

## C/C=C1/CN(C)[C@H]2Cc3c([nH]c4ccccc34)[C@H](c3cc4[nH]c5c(c4cc3OC)CCN3C[C@@H]4C[C@H](CC)[C@H]3[C@@]5(C(=O)OC)C4)C[C@@H]1C2C(=O)OC (stereo partly drawn)
CT26
  IC50: 1.38 µM
HCT-116 [15]
  IC50: 4.1 µM

## C=CC(=O)Nc1ccccc1Nc1nc(Nc2ccc(CN3CCC(C(=O)NO)CC3)cc2)ncc1Cl
HCT-116 [16]
  IC50: 0.134 µM
SW-620 [17]
  IC50: 0.309 µM

## O=C1/C(=C/c2ccccc2Br)CSC/C1=C\c1ccccc1Br
LoVo [18]
  IC50: 1 µM

## COC(=O)[C@H](C)NC(=O)N[C@]1(C)CC[C@]2(C)CC[C@]3(C)C4=CC=C5C(=CC(=O)C(O)=C5C)[C@]4(C)CC[C@@]3(C)[C@@H]2C1
SW-620 [19]
  IC50: 0.28 µM
HCT-116 [20]
  IC50: 0.28 µM

## C=CCCCOc1cc(O)c2c(c1)OC(c1ccc(O)cc1)CC2=O (stereo not drawn)
HT-29 [21]
  IC50: 23.4 µM

## C[C@@H]1CC[C@@]2(OC1)O[C@H]1C[C@H]3[C@]4(C)CC=C5C[C@@H](O[C@@H]6O[C@H](CO)[C@@H](O[C@@H]7O[C@@H](C)[C@H](O[C@@H]8O[C@@H](C)[C@H](O)[C@@H](O)[C@@H]8O)[C@@H](O)[C@H]7O)[C@H](O)[C@H]6O[C@@H]6O[C@@H](C)C(O)[C@@H](O)[C@H]6O)CC[C@]5(C)[C@H]4CC[C@]3(C)[C@H]1[C@@H]2C (stereo partly drawn)
HCT-116 [22]
  IC50: 3.73 µM
HT-29 [23]
  IC50: 1.89 µM

## COc1ccccc1[C@@H](NS(=O)(=O)c1ccc2[nH]c(=O)ccc2c1)C(=O)N(Cc1ccco1)Cc1cccs1
HCT-116 [24]
  IC: 20 µM

## c1ccc(-c2ccc(-c3csc(N/N=C4\CCc5ccccc54)n3)cc2)cc1
HT-29 [25]
  IC50: 0.44 µM
COLO 205
  IC50: 0.98 µM
KM12
  IC50: 0.41 µM

## O=c1cc(-c2ccc(Oc3c(-c4ccc(O)cc4)oc4cc(O)cc(O)c4c3=O)cc2)oc2cc(O)cc(O)c12
HCT-116 [26]
  IC50: 32 µM
HT-29 [27]
  IC50: 18.8 µM

## N#CC1=C(N)Oc2ccc3ccccc3c2C1c1ccc(F)cc1 (stereo not drawn)
HT-29 [28]
  IC50: 60 µM
